The results in this text go back to ChEMBL document CHEMBL6092167, “Phosphorylation as an Effective Tool to Improve Stability and Reduce Toxicity of Antimicrobial Peptides” (J Med Chem, 2024).

One may read the MIC as the lowest concentration found to suppress growth. A low value points to greater potency.

For test [1], the system named is Staphylococcus aureus. As to the kind of experiment: Antibacterial activity against Staphylococcus aureus ATCC 25923 infected in BALB/c mouse systemic infection model assessed as reduction in bacterial load in kidney at 1.09 mg/kg, ip pre-infected for 2 hrs followed by compound addition and measured after 8 hrs postinfection. Conditions: time 6.0 hrs. The test is classed as functional, organism-based.

Test [2] deals with Acinetobacter baumannii. As to the kind of experiment: Antibacterial activity against Acinetobacter baumannii ATCC 19606 incubated for 18 to 24 hrs by broth microdilution method. Conditions: time 18-24 hrs. The test is classed as functional.
The test system of test [3] is Staphylococcus aureus. As to the kind of experiment: Antibacterial activity against Staphylococcus aureus ATCC 25923 infected in BALB/c mouse systemic infection model assessed as reduction in bacterial load in lung at 1.09 mg/kg, ip pre-infected for 2 hrs followed by compound addition and measured after 8 hrs postinfection. The test is classed as functional, organism-based. Conditions: time 6.0 hrs.

The test system of test [4] is Staphylococcus aureus. As to the kind of experiment: Antibacterial activity against Staphylococcus aureus ATCC 25923 infected in BALB/c mouse systemic infection model assessed as reduction in tissue hemorrhage at 1.09 mg/kg, ip pre-infected for 2 hrs followed by compound addition and measured after 8 hrs postinfection. Conditions: time 6.0 hrs. The test is classed as functional, organism-based.

For test [5], the system named is Pseudomonas aeruginosa. Kind of test: Antibacterial activity against Pseudomonas aeruginosa 119 incubated for 18 to 24 hrs by broth microdilution method. The test is classed as functional. Conditions: time 18-24 hrs. (In broth dilution the organism is exposed to a series of concentrations in liquid medium.)
For test [6], the system named is Staphylococcus aureus. Kind of test: Antibacterial activity against Staphylococcus aureus ATCC 25923 infected in BALB/c mouse systemic infection model assessed as reduction in inflammatory response in lung tissue at 1.09 mg/kg, ip pre-infected for 2 hrs followed by compound addition and measured after 8 hrs postinfection. Format: functional, organism-based. The note with it: time 6.0 hrs.

For test [7], the system named is Staphylococcus aureus. Kind of test: Antibacterial activity against Staphylococcus aureus ATCC 25923 infected in BALB/c mouse systemic infection model assessed as reduction in bacterial load in liver at 1.09 mg/kg, ip pre-infected for 2 hrs followed by compound addition and measured after 8 hrs postinfection. Conditions: time 6.0 hrs. The test is classed as functional, organism-based.

Test [8] deals with Bacillus subtilis. Kind of test: Antibacterial activity against Bacillus subtilis ATCC 23857 incubated for 18 to 24 hrs by broth microdilution method. Format: functional. The note with it: time 18-24 hrs.
The subject of test [9] is Staphylococcus aureus. As to the kind of experiment: Antibacterial activity against methicillin resistant Staphylococcus aureus 48 incubated for 18 to 24 hrs by broth microdilution method. Conditions: time 18-24 hrs. The test is classed as functional.
The subject of test [10] is Staphylococcus aureus. Kind of test: Antibacterial activity against Staphylococcus aureus ATCC 25923 incubated for 18 to 24 hrs by broth microdilution method. The test is classed as functional. The note with it: time 18-24 hrs.
The subject of test [11] is Staphylococcus aureus. Kind of test: Antibacterial activity against Staphylococcus aureus 794 incubated for 18 to 24 hrs by broth microdilution method. The test is classed as functional. The note with it: time 18-24 hrs.
Test [12] relates to Staphylococcus aureus. Kind of test: Antibacterial activity against Staphylococcus aureus ATCC 25923 infected in BALB/c mouse systemic infection model assessed as improved alveoli dilation at 1.09 mg/kg, ip pre-infected for 2 hrs followed by compound addition and measured after 8 hrs postinfection. Format: functional, organism-based. Conditions: time 6.0 hrs.
For test [13], the system named is Pseudomonas aeruginosa. As to the kind of experiment: Antibacterial activity against Pseudomonas aeruginosa ATCC 27853 incubated for 18 to 24 hrs by broth microdilution method. The test is classed as functional. The note with it: time 18-24 hrs.
In test [14] the test system is Staphylococcus aureus. As to the kind of experiment: Antibacterial activity against methicillin resistant Staphylococcus aureus ATCC 33591 incubated for 18 to 24 hrs by broth microdilution method. Conditions: time 18-24 hrs. The test is classed as functional.
Test [15] deals with Staphylococcus aureus. As to the kind of experiment: Antibacterial activity against Staphylococcus aureus ATCC 25923 infected in BALB/c mouse systemic infection model assessed as reduction in bacterial load in spleen at 1.09 mg/kg, ip pre-infected for 2 hrs followed by compound addition and measured after 8 hrs postinfection. Format: functional, organism-based. The note with it: time 6.0 hrs.

Test [16] relates to Klebsiella pneumoniae. As to the kind of experiment: Antibacterial activity against Klebsiella pneumoniae ATCC 700603 incubated for 18 to 24 hrs by broth microdilution method. The note with it: time 18-24 hrs. Format: functional.
The test system of test [17] is Staphylococcus aureus. As to the kind of experiment: Bactericidal activity against Staphylococcus aureus ATCC 25923 at 2 times MIC incubated for 24 hrs by time kill assay. Format: functional.
Test [18] deals with Klebsiella pneumoniae. As to the kind of experiment: Additive antibacterial activity against Klebsiella pneumoniae ATCC 700603 assessed as fractional inhibitory concentration index at 1/4 to 4 times MIC incubated for 18 to 24 hrs in presence of kanamycin by checkerboard assay. Format: functional. The note with it: time 18-24 hrs.
Test [19] relates to Escherichia coli. Kind of test: Antibacterial activity against Escherichia coli ATCC 25922 incubated for 18 to 24 hrs by broth microdilution method. Format: functional. Conditions: time 18-24 hrs.
Test [20] concerns Escherichia coli. Kind of test: Antibacterial activity against Escherichia coli 780 incubated for 18 to 24 hrs by broth microdilution method. Format: functional. The note with it: time 18-24 hrs.
Test [21] relates to Klebsiella pneumoniae. Kind of test: Synergistic antibacterial activity against Klebsiella pneumoniae ATCC 700603 assessed as fractional inhibitory concentration index at 1/4 to 4 times MIC incubated for 18 to 24 hrs in presence of ciprofloxacin by checkerboard assay. Format: functional. Conditions: time 18-24 hrs.
For test [22], the system named is Staphylococcus aureus. As to the kind of experiment: Antibacterial activity against Staphylococcus aureus ATCC 25923 assessed as fold increase in MIC in presence of Na+. Format: functional.
The test system of test [23] is Klebsiella pneumoniae. As to the kind of experiment: Drug resistance development in Klebsiella pneumoniae ATCC 700603 assessed as fold increase in MIC measured after 20 passage. The test is classed as functional.
Test [24] has as its system Escherichia coli. Kind of test: Antibacterial activity against Escherichia coli 850 incubated for 18 to 24 hrs by broth microdilution method. The test is classed as functional. Conditions: time 18-24 hrs.

Active and inactive are the calls of the source. The rule behind the calls is not given here. Positions of bridges follow the written chain, without caps; N, C: chain ends. Non-standard residues stand in square brackets, D forms with d. Residues, ends and D or L forms follow the SMILES beside them. *: point of attachment. X1 = CC[C@H](C)CCCCC(=O)*; Dab = NCC[C@H](N)C(=O)O

In the case of `CNC(C)[C@@H]1CC[C@@H](N)[C@@H](O[C@H]2[C@H](O)[C@@H](O[C@H]3OC[C@](C)(O)[C@H](NC)[C@H]3O)[C@H](N)C[C@@H]2N)O1.CN[C@@H]1[C@@H](O)[C@@H](O[C@@H]2[C@@H](O)[C@H](O[C@H]3O[C@H](C(C)N)CC[C@H]3N)[C@@H](N)C[C@H]2N)OC[C@]1(C)O.CN[C@@H]1[C@@H](O)[C@@H](O[C@@H]2[C@@H](O)[C@H](O[C@H]3O[C@H](CN)CC[C@H]3N)[C@@H](N)C[C@H]2N)OC[C@]1(C)O` (stereo partly drawn), the outcome in test [1], in [3], in test [4], in test [6], in [7] and in test [15] was Active. Also, the MIC was 8 µM in test [2]; over 128 µM in test [5]; under 1 µM in test [8]; 64 µM in test [9]; under 1 µM in test [10]; 64 µM in test [11]. In addition, the values for the MIC in test [13], in test [14] and in test [16] were under 1 µM, 32 µM and 8 µM, respectively. The result in [12] was inactive.
`CC(C)CCCCC(=O)N[C@@H](CCN)C(=O)N[C@H](C(=O)N[C@@H](CCN)C(=O)N[C@H]1CCNC(=O)[C@H]([C@@H](C)O)NC(=O)[C@H](CCN)NC(=O)[C@H](CCN)NC(=O)[C@H](CC(C)C)NC(=O)[C@@H](Cc2ccccc2)NC(=O)[C@H](CCN)NC1=O)[C@@H](C)O.CC[C@H](C)CCCCC(=O)N[C@@H](CCN)C(=O)N[C@H](C(=O)N[C@@H](CCN)C(=O)N[C@H]1CCNC(=O)[C@H]([C@@H](C)O)NC(=O)[C@H](CCN)NC(=O)[C@H](CCN)NC(=O)[C@H](CC(C)C)NC(=O)[C@@H](Cc2ccccc2)NC(=O)[C@H](CCN)NC1=O)[C@@H](C)O` (X1-[Dab]T[Dab][Dab][Dab][dF]L[Dab][Dab]T; lactam 4-C): the MIC came to 2 µM in test [2]; 2 µM in test [5]; 4 µM in test [8]; 16 µM in [9]; 16 µM in test [10]; 4 µM in test [19]. The MIC in test [20] was 2 µM; in [11], 8 µM; in [13] it was 2 µM; in [14], 16 µM; in test [16] it was 4 µM; in test [24] it was 2 µM. Also, the Activity in [17] stood at 100%. Moreover, the “fractional inhibitory concentration index (FICI)” value in test [18] and in test [21] was 0.313 in each case. Moreover, the “fold change (FC)” value was 4 in [22] and 64 in test [23].
